Results reported in ChEMBL document CHEMBL3259695 (J Med Chem, 2014).

How the values were obtained:
D(3) dopamine receptor [1] = molecular target: D(3) dopamine receptor (Rattus norvegicus, UniProt P19020); assay: Displacement of [3H]R-(+)-7-OHDPAT from dopamine D3 receptor in Sprague-Dawley rat ventral striatum after 90 mins
D(2) dopamine receptor [2] = molecular target: D(2) dopamine receptor (Rattus norvegicus, UniProt P61169); assay: Displacement of [3H]Spiperone from dopamine D2-like receptor in Sprague-Dawley rat caudate putamen after 90 mins; type: tissue-based
[3] = Displacement of [3H]SCH 23390 from dopamine D1-like receptor in Sprague-Dawley rat caudate putamen after 90 mins; type: tissue-based
Rattus norvegicus [4] = species on record: Rattus norvegicus; assay: Selectivity ratio of Ki for dopamine D2-like receptor in Sprague-Dawley rat caudate putamen to Ki for dopamine D3 receptor in Sprague-Dawley rat ventral striatum; type: tissue-based
Rattus norvegicus [5] = species on record: Rattus norvegicus; assay: Selectivity ratio of Ki for dopamine D1-like receptor in Sprague-Dawley rat caudate putamen to Ki for dopamine D3 receptor in Sprague-Dawley rat ventral striatum; type: tissue-based
D(3) dopamine receptor [6] = molecular target: T1, D(3) dopamine receptor (Homo sapiens, UniProt P35462); assay: Displacement of [3H]N-methylspiperone from human dopamine D3 receptor expressed in HEK293 cells after 1 hr by liquid scintillation counting analysis; type: cell-based
D(2) dopamine receptor [7] = molecular target: D(2) dopamine receptor (Homo sapiens, UniProt P14416); assay: Displacement of [3H]N-methylspiperone from human dopamine D2 receptor expressed in HEK293 cells after 1 hr by liquid scintillation counting analysis; type: cell-based
D(3) dopamine receptor [8] = molecular target: T1, D(3) dopamine receptor
D(3) dopamine receptor [9] = molecular target: T1, D(3) dopamine receptor; details: U2OS

Sequence of D(2) dopamine receptor (Rattus norvegicus, UniProt P61169) (P61169 whole entry): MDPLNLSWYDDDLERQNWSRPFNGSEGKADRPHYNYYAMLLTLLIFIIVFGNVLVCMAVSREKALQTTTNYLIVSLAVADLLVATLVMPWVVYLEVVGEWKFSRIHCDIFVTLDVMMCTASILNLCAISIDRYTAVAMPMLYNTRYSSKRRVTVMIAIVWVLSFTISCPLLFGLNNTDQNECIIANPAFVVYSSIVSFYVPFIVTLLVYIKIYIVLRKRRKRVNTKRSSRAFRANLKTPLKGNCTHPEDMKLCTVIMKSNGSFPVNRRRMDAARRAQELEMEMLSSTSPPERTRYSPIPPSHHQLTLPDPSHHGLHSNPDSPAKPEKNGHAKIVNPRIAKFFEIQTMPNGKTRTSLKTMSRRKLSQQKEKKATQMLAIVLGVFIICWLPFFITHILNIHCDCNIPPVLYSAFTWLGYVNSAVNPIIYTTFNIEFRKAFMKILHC
Sequence of D(3) dopamine receptor (Rattus norvegicus, UniProt P19020) (P19020 whole entry): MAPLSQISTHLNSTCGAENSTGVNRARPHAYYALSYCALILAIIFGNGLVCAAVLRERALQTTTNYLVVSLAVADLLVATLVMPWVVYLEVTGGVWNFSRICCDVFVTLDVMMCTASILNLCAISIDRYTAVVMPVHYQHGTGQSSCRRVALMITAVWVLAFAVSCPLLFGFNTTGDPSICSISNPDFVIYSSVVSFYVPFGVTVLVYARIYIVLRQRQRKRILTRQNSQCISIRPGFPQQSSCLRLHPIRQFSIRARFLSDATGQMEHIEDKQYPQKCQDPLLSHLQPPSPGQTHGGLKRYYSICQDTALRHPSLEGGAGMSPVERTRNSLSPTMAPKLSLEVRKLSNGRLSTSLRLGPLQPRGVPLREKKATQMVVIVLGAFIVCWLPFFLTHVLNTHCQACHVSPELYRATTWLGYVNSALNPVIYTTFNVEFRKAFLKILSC
T1 sequence (P35462 whole entry): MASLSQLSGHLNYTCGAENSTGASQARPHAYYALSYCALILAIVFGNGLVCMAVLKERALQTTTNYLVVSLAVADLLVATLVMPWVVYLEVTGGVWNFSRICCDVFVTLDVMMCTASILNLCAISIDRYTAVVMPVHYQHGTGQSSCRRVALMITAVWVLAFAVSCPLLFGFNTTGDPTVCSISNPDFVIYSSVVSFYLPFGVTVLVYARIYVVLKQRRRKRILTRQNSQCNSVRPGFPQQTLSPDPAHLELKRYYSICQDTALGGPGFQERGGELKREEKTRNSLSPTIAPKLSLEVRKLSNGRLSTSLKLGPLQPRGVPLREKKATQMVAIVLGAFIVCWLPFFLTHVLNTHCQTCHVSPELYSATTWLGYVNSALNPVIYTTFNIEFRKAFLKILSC
Sequence of D(2) dopamine receptor (Homo sapiens, UniProt P14416) (P14416 whole entry): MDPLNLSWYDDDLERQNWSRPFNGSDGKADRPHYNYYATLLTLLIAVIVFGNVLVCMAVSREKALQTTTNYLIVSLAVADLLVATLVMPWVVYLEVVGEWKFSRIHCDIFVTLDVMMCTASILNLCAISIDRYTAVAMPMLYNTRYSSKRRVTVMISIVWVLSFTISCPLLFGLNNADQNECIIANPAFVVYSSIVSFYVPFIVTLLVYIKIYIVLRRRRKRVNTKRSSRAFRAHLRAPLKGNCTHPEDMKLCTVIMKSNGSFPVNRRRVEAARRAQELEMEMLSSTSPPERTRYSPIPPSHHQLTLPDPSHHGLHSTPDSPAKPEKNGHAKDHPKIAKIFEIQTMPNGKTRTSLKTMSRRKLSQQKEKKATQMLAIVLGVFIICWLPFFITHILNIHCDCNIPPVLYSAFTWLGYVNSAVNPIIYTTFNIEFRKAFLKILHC

Row | Compound | Ki (D(3) dopamine receptor [1]) [nM] | Ki (D(2) dopamine receptor [2]) [µM] | Ki [3] [µM] | Ratio Ki (Rattus norvegicus [4]) | Ratio Ki (Rattus norvegicus [5]) | further results
1 | CCCN(CC[C@]1(O)C[C@@H](NC(=O)c2ccc3ccccc3c2)C1)[C@H]1C[C@@H]1c1ccc(Cl)cc1 | 457 | > 100 | 20.7 |  |  | 
2 | Cc1ncoc1-c1nnc(SCCCN2CC3CC3(c3ccc(C(F)(F)F)cc3F)C2)n1C (stereo not drawn) | 46 |  | 38.8 |  |  | 
3 | CCCN(CC[C@]1(O)C[C@@H](NC(=O)c2ccc3ccccc3c2)C1)[C@H]1C[C@@H]1c1ccccc1 | 108 | 2.14 | 3.09 | 20 | 29 | 
4 | CCCN[C@H]1C[C@@H]1c1ccccc1 | 1170 | 95.6 | 123 | 82 | 105 | 
5 | CCCN(CC[C@]1(O)C[C@@H](NC(=O)c2ccc3ccccc3c2)C1)[C@H]1C[C@@H]1c1ccccc1Cl (racemic) |  |  | 0.743 | 26 | 39 | 
6 | N[C@@H]1C[C@H]1c1ccccc1.N[C@H]1C[C@@H]1c1ccccc1 (racemic) [TRANYLCYPROMINE] |  | 58.7 |  |  |  | 
7 | CCN1CCC[C@H]1CNC(=O)c1c(O)c(Cl)cc(Cl)c1OC [RACLOPRIDE] |  |  |  |  |  | Ki (D(3) dopamine receptor [6]): 13.4 nM
8 | CCCN(CC[C@]1(O)C[C@@H](NC(=O)c2ccc3ccccc3c2)C1)[C@@H]1C[C@H]1c1ccc(Cl)cc1 | 2.7 | > 300 | 25.8 |  |  | Ki (D(2) dopamine receptor [7]): 623 nM; IC50 (D(3) dopamine receptor [8]): 327 nM; ED50 (D(3) dopamine receptor [9]): > 100000 nM; Ki (D(3) dopamine receptor [6]): 2.8 nM
9 | CCCN(CC[C@]1(O)C[C@@H](NC(=O)c2ccc3ccccc3c2)C1)[C@@H]1C[C@H]1c1ccccc1 | 44 | 1.31 | 2.83 | 30 | 64 | 
10 | CCCN[C@H]1CCc2nc(N)sc2C1 |  |  |  |  |  | ED50 (D(3) dopamine receptor [9]): 3.7 nM
11 | CCCN(CC[C@]1(O)C[C@@H](NC(=O)c2ccc3ccccc3c2)C1)C1CC1c1ccc(Cl)cc1 (mixture of isomers) |  |  | 2.2 |  |  | 
12 | CCc1cc(Cl)c(OC)c(C(=O)NC[C@@H]2CCCN2CC)c1O [ETICLOPRIDE] |  |  |  |  |  | Ki (D(2) dopamine receptor [7]): 0.086 nM
13 | CCCN[C@@H]1C[C@H]1c1ccccc1 | 1200 | 96.6 | 90.6 | 81 | 76 | 
14 | CCCN(CC[C@]1(O)C[C@@H](NC(=O)c2ccc3ccccc3c2)C1)[C@H]1C[C@@H]1c1cccc(Cl)c1 (racemic) |  | > 300 | 1.8 |  | 64 | 
